Assay results taken from publication PMC7948948 (The Journal of Biological Chemistry, 2021).
In brackets after ≈: the same amount, converted by molar mass.

Test system: Mtb pheS–FDAS
Assay type: cell-based, Mycobacterium tuberculosis

O=C(Nc1cccnc1)N1CCC(Cc2cccc(Oc3ccc(C(F)(F)F)cn3)c2)CC1 [PF-3845]
MIC, pheS–FDAS mutant: 40 µM (≈ 18.3 µg/mL)
